Experimental findings from patent US20260028326A1, “COMPOUND BASED ON ISOINDOLINE-SUBSTITUTED GLUTARIMIDE BACKBONE AND USE THEREOF” (GLUETACS THERAPEUTICS (SHANGHAI) CO., LTD., priority 2022, published 2026) are described below.

Molecules are shown by their SMILES.

As a reminder, the IC50 is the point on the concentration scale where inhibition reaches its midpoint. A high value points to weaker potency.

In assay [1] the target is human Cereblon WT GST-tagged protein (Homo sapiens (Human), UniProt Q96SW2). Nature of the assay: CRBN-binding affinity, HTRF (CEREBLON BINDING kit). In a few lines: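 HTRF competition readout: compounds compete with a thalidomide-Re conjugate for GST-tagged wild-type human CRBN detected via Eu-labelled anti-GST antibody. Inhibition rate derived relative to protein-free blank wells.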

The next assay addresses IKZF1 protein (Homo sapiens (Human), UniProt Q13422+Q96SW2). The assay can be described thus: Western-blot assay of substrate protein degradation in hPBMC, IKZF1. Conditions: hPBMC cells, compound 500 nM, 24 hours, Western blot. In kind it is cell-based. A general note: In western blotting, separated proteins are transferred to a membrane and probed.
A further assay deals with IKZF3 protein (Homo sapiens (Human), UniProt Q96SW2+Q9UKT9). The assay can be described thus: Western-blot assay of substrate protein degradation in hPBMC, IKZF3. In kind it is cell-based. Conditions: hPBMC cells, compound 500 nM, 24 hours, Western blot.
Another assay concerns the target GSPT1 protein (Homo sapiens (Human), UniProt P15170+Q96SW2). Nature of the assay: Western-blot assay of substrate protein degradation in hPBMC, GSPT1. Format: cell-based. Conditions: hPBMC cells, compound 500 nM, 24 hours, Western blot.

Sequence of IKZF1 protein (Q13422 whole entry): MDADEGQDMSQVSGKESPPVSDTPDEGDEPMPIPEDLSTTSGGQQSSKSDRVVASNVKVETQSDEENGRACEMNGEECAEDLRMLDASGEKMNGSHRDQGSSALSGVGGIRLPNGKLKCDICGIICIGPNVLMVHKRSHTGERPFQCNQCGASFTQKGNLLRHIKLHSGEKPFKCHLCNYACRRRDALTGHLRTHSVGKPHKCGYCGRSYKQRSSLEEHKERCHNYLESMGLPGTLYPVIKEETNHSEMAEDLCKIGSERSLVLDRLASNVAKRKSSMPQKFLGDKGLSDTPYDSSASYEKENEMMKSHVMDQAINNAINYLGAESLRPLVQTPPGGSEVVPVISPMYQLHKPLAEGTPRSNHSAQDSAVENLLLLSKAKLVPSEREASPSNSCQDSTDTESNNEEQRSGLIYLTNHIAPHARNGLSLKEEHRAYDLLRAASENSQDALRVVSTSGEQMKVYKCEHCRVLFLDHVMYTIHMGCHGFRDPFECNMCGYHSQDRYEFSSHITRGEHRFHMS
Sequence of IKZF1 protein (Q96SW2 whole entry): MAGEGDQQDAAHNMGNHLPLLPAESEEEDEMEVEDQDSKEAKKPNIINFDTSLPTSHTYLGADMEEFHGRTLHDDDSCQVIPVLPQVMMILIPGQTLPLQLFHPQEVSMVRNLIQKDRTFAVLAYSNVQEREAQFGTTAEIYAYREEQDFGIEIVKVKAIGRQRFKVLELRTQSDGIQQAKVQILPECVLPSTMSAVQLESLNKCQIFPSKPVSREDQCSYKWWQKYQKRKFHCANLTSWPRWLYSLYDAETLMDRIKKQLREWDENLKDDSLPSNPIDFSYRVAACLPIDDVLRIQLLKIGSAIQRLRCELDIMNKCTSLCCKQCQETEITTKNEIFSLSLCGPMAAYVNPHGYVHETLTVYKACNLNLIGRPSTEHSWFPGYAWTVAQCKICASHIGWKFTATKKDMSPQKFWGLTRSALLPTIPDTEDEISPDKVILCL
Sequence of IKZF1 protein (Q16531 whole entry partner): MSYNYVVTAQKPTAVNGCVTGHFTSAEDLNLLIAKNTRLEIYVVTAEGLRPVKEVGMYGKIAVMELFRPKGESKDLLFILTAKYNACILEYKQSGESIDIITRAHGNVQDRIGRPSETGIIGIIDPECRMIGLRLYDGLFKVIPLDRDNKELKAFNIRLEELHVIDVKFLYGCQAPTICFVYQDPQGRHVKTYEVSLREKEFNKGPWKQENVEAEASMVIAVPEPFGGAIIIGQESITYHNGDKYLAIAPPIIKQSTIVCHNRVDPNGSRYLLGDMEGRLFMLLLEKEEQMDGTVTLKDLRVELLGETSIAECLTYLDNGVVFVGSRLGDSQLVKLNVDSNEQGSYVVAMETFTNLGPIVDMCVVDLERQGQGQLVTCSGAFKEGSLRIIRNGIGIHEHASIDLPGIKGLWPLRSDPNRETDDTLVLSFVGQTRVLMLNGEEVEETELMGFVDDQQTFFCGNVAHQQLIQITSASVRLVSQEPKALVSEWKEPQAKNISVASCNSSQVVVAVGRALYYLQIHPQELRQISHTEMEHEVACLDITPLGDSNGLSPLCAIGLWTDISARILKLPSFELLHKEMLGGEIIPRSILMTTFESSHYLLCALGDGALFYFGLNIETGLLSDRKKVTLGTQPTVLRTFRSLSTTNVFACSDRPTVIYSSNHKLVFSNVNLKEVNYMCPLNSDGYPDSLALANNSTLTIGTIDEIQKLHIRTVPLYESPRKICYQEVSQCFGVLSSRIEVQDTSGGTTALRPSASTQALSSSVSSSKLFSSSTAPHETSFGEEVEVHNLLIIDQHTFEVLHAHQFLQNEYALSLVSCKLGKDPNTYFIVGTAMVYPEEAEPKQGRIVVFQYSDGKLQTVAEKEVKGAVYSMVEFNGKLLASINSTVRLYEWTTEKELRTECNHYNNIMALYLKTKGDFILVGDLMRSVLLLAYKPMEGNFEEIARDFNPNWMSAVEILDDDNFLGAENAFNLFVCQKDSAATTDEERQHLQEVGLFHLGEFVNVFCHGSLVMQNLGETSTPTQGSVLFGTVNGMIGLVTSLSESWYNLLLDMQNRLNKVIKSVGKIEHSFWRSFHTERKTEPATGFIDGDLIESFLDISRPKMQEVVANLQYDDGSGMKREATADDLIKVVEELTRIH
Sequence of GSPT1 protein (P15170 whole entry): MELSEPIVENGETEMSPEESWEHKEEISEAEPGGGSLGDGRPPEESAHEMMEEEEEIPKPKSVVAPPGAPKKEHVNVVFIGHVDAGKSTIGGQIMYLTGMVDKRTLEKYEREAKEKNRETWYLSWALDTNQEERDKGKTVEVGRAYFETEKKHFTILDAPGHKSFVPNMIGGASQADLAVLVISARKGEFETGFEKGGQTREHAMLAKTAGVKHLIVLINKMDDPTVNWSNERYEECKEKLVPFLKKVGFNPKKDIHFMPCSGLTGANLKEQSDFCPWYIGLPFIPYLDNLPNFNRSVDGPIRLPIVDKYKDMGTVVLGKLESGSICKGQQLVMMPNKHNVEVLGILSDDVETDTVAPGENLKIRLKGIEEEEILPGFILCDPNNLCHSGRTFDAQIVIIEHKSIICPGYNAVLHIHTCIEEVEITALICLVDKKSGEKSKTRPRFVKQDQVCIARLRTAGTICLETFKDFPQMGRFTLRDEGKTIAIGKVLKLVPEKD
Sequence of GSPT1 protein (Q96SW2 whole entry): as the sequence (Q96SW2 whole entry) above
Sequence of GSPT1 protein (Q16531 whole entry partner): as the sequence (Q16531 whole entry partner) above
Sequence of IKZF3 protein (Q9UKT9 whole entry): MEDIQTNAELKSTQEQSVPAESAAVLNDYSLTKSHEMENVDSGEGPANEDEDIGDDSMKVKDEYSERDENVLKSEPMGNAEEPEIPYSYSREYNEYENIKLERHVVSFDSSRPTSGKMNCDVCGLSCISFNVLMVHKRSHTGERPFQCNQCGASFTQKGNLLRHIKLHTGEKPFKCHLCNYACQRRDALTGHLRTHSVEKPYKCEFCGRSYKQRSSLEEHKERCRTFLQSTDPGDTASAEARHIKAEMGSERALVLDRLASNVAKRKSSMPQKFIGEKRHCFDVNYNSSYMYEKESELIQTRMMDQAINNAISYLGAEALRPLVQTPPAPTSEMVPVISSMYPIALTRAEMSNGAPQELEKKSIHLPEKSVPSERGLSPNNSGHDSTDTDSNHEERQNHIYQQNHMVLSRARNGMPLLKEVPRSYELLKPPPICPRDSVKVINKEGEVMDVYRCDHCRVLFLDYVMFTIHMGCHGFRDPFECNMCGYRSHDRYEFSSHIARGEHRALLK
Sequence of IKZF3 protein (Q96SW2 whole entry): as the sequence (Q96SW2 whole entry) above
Sequence of IKZF3 protein (Q16531 whole entry partner): as the sequence (Q16531 whole entry partner) above
Sequence of human Cereblon WT GST-tagged protein (Q96SW2 whole entry): as the sequence (Q96SW2 whole entry) above

Consider `O=C1CCC(N2Cc3cc(CN4CCN(CC5=C(c6ccc(F)cc6)CCCC5)CC4)ccc3C2=O)C(=O)N1` (centres unmarked) [GT-04193, 3-(5-((4-((4′-fluoro-3,4,5,6-tetrahydro-[1,1′-biphenyl]-2-yl)methyl)piperazin-1-yl)methyl)-1-oxoisoindolin-2-yl)piperidine-2,6-dione], for which, in assay [1], the IC50 is 460 nM. Besides, at IKZF1 protein, the “residual substrate protein level, IKZF1” value was “A (A represents a residual substrate protein level of <50%)”. In addition, on IKZF3 protein, the “residual substrate protein level, IKZF3” value is listed as “A (A represents a residual substrate protein level of <50%)”. In addition, the “residual substrate protein level, GSPT1” value at GSPT1 protein is listed as “A (A represents a residual substrate protein level of <50%)”.

As for `CC1(C)CCC(CN2C[C@@H]3C[C@H]2CN3Cc2ccc3c(c2)CN(C2CCC(=O)NC2=O)C3=O)=C(c2ccc(Cl)cc2)C1` (stereo partly drawn) [GT-03997, 3-(5-(((1S,4S)-5-((4′-chloro-5,5-dimethyl-3,4,5,6-tetrahydro-[1,1′-biphenyl]-2-yl)methyl)-2,5-diazabicyclo[2.2.1]heptan-2-yl)methyl)-1-oxoisoindolin-2-yl)piperidine-2,6-dione], in assay [1], the IC50 was 770 nM. Besides, the “residual substrate protein level, IKZF1” value on IKZF1 protein is given as “A (A represents a residual substrate protein level of <50%)”. The “residual substrate protein level, IKZF3” value at IKZF3 protein is reported as “A (A represents a residual substrate protein level of <50%)”. Also, on GSPT1 protein, the “residual substrate protein level, GSPT1” value is recorded as “B (B represents a residual substrate protein level of >50%)”.

In the case of `CC1(C)CCC(CN2CC3CCC(C2)N3Cc2ccc3c(c2)CN(C2CCC(=O)NC2=O)C3=O)=C(c2ccc(F)cc2)C1` (centres unmarked) [GT-05400, 3-(5-((3-((4′-fluoro-5,5-dimethyl-3,4,5,6-tetrahydro-[1,1′-biphenyl]-2-yl)methyl)-3,8-diazabicyclo[3.2.1]octan-8-yl)methyl)-1-oxoisoindolin-2-yl)piperidine-2,6-dione], the IC50 in assay [1] was determined as 840 nM. On IKZF1 protein, the “residual substrate protein level, IKZF1” value is recorded as “B (B represents a residual substrate protein level of >50%)”. Further, the “residual substrate protein level, IKZF3” value on IKZF3 protein is on record as “B (B represents a residual substrate protein level of >50%)”. In addition, the “residual substrate protein level, GSPT1” value on GSPT1 protein was “A (A represents a residual substrate protein level of <50%)”.

Regarding `CC1(C)CCC(C(=O)N2CC3CCC2CN3Cc2ccc3c(c2)CN(C2CCC(=O)NC2=O)C3=O)=C(c2ccc(Cl)cc2)C1` (centres unmarked) [GT-05662, 3-(5-((5-(4′-chloro-5,5-dimethyl-3,4,5,6-tetrahydro-[1,1′-biphenyl]-2-carbonyl)-2,5-diazabicyclo[2.2.2]octan-2-yl)methyl)-1-oxoisoindolin-2-yl)piperidine-2,6-dione], in assay [1], the half-maximal inhibitory concentration (IC50) was found to be 710 nM. The “residual substrate protein level, IKZF1” value at IKZF1 protein is on record as “B (B represents a residual substrate protein level of >50%)”. Also, on IKZF3 protein, the “residual substrate protein level, IKZF3” value is given as “A (A represents a residual substrate protein level of <50%)”. For the same molecule, the “residual substrate protein level, GSPT1” value at GSPT1 protein is given as “B (B represents a residual substrate protein level of >50%)”.

`CC1(C)CCC(C(=O)N2CC(O)(C(O)c3ccc4c(c3)CN(C3CCC(=O)NC3=O)C4=O)C2)=C(c2ccc(F)cc2)C1` (centres unmarked) [GT-05490, 3-(5-((1-(4′-fluoro-5,5-dimethyl-3,4,5,6-tetrahydro-[1,1′-biphenyl]-2-carbonyl)-3-hydroxyazetidin-3-yl)(hydroxy)methyl)-1-oxoisoindolin-2-yl)piperidine-2,6-dione] gave an IC50 in assay [1] of 580 nM. The “residual substrate protein level, IKZF1” value on IKZF1 protein is on record as “A (A represents a residual substrate protein level of <50%)”. Also, on IKZF3 protein, the “residual substrate protein level, IKZF3” value was “B (B represents a residual substrate protein level of >50%)”. For the same molecule, the “residual substrate protein level, GSPT1” value at GSPT1 protein is recorded as “B (B represents a residual substrate protein level of >50%)”.
